Source: ChEMBL document CHEMBL3286258, “Medicinal chemistry of inhibitors of 11β-hydroxysteroid dehydrogenase type 1 (11β-HSD1)” (J Med Chem, 2014)
Each block holds one compound with its values, some of them ahead of it.

What was measured:
Mus musculus [1] = test: In vivo inhibition of 11beta-HSD1 in mouse assessed as inhibition of cortisone to cortisol conversion at 5 mg/kg relative to control; type: functional
Mus musculus [2] = test: In vivo inhibition of 11beta-HSD1 in mouse assessed as inhibition of cortisone to cortisol conversion at 100 mg/kg relative to control; type: functional
[3] = Oral bioavailability in rat; type: ADME, organism-based; details: in vivo
[4] = Inhibition of cytochrome P450 (unknown origin); type: ADME, Homo sapiens
[5] = Clearance in rat; type: ADME, organism-based; details: in vivo
Mus musculus [6] = test: Ex vivo inhibition of 11beta-HSD1 in mouse fat at 20 mg/kg relative to control; type: functional
Mus musculus [7] = test: Reduction in postprandial blood glucose level in high fat diet-fed STZ-induced diabetes mouse model at 30 mg/kg bid for 9 days relative to vehicle-treated control; type: functional; parameters: scale not given: the % may be the effect or the level left
Mus musculus [8] = test: In vivo inhibition of 11beta-HSD1 in mouse assessed as inhibition of [3H]cortisone to [3H]cortisol conversion at 10 mg/kg, po measured after 4 hrs relative to control; type: functional
[9] = target: 11-beta-hydroxysteroid dehydrogenase 1 (Homo sapiens, UniProt P28845); test: Inhibition of human 11beta-HSD1
Mus musculus [10] = test: Reduction in body weight in diet-induced obese mouse model at 20 mg/kg bid for 11 days relative to vehicle-treated control; type: functional; parameters: scale not given: the % may be the effect or the level left
[11] = target: T1, 11-beta-hydroxysteroid dehydrogenase type 2 (Mus musculus, UniProt P51661); test: Inhibition of mouse 11beta-HSD2
T1 sequence (P51661 whole entry): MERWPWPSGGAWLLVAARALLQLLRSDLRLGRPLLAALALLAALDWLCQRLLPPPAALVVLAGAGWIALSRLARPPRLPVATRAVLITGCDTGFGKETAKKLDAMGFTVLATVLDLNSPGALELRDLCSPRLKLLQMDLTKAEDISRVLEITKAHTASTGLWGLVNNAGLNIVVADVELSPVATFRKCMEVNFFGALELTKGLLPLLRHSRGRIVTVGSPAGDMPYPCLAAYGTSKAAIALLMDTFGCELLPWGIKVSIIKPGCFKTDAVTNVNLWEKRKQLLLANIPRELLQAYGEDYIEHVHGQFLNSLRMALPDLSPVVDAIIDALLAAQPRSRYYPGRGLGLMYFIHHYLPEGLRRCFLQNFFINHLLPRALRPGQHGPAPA

Mus musculus [12] = test: Reduction in fasting blood glucose level in diet-induced obese mouse model at 20 mg/kg bid for 11 days relative to vehicle-treated control; type: functional; parameters: scale not given: the % may be the effect or the level left
Mus musculus [13] = test: In vivo inhibition of 11beta-HSD1 in mouse assessed as inhibition of [3H]cortisone to [3H]cortisol conversion at 10 mg/kg, po measured after 1 hr relative to control; type: functional
Mus musculus [14] = test: Reduction in fasting blood glucose level in high fat diet-fed STZ-induced diabetes mouse model at 30 mg/kg bid for 9 days relative to vehicle-treated control; type: functional; parameters: scale not given: the % may be the effect or the level left
Mus musculus [15] = test: Reduction in aortic total cholesterol accumulation in high fat diet-fed mouse model at 10 mg/kg/day for 8 weeks relative to vehicle-treated control; parameters: scale not given: the % may be the effect or the level left
Mus musculus [16] = test: Reduction in cumulative food intake in diet-induced obese mouse model at 20 mg/kg bid for 11 days relative to vehicle-treated control; type: functional; parameters: scale not given: the % may be the effect or the level left
[17] = target: T2, 11-beta-hydroxysteroid dehydrogenase type 2 (Homo sapiens, UniProt P80365); test: Inhibition of human 11beta-HSD2
T2 sequence (P80365 whole entry): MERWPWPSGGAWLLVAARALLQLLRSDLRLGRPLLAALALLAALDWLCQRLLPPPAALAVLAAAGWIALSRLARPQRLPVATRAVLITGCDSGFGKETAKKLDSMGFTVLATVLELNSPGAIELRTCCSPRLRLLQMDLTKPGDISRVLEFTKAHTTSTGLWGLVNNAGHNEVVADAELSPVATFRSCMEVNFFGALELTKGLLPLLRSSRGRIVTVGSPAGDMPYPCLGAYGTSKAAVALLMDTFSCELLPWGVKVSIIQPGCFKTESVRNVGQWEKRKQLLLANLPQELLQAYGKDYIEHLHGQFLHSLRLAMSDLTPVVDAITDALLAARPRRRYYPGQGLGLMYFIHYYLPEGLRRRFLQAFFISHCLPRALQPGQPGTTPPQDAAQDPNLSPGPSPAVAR

[18] = Inhibition of N-terminal His-tagged full length dog 11beta-HSD1 assessed as inhibition of cortisone to cortisol conversion preincubated for 25 mins measured after 2 hrs by HTRF assay; parameters: species or system Canis lupus familiaris
[19] = Clearance in mouse; type: ADME, organism-based; details: in vivo
[20] = target: T3, 11-beta-hydroxysteroid dehydrogenase 1 (Mus musculus, UniProt P50172); test: Inhibition of mouse 11beta-HSD1
[21] = Oral bioavailability in mouse; type: ADME, organism-based; details: in vivo
Mus musculus [22] = species: Mus musculus; test: Reduction in liver corticosterone level in adrenalectomized mouse model; type: functional
[23] = target: 11-beta-hydroxysteroid dehydrogenase 1 (Rattus norvegicus, UniProt P16232); test: Inhibition of rat 11beta-HSD1 expressed in HEK293 cells; type: cell-based
[24] = target: T3, 11-beta-hydroxysteroid dehydrogenase 1; test: Inhibition of mouse 11beta-HSD1 expressed in HEK293 cells; type: cell-based
Homo sapiens [25] = species: Homo sapiens; test: Toxicity in type 2 diabetic patient assessed as increase in circulating adrenal androgen at 6 mg/day relative to placebo-control; type: organism-based; details: in vivo
Homo sapiens [26] = species: Homo sapiens; test: Toxicity in type 2 diabetic patient assessed as increase in LDL-cholesterol level at 6 mg/day relative to placebo-control; type: organism-based; details: in vivo
Homo sapiens [27] = species: Homo sapiens; test: Reduction in hBA1c in type 2 diabetic patient; type: functional; parameters: scale not given: the % may be the effect or the level left
Cynomolgus monkey [28] = test: Reduction in plasma insulin level in cynomolgus monkey at 0.1 to 3 mg/kg; type: functional, Macaca fascicularis; details: dose mg/kg 0.1-3
Cynomolgus monkey [29] = test: In vivo inhibition of 11beta-HSD1 in cynomolgus monkey assessed as inhibition of prednisone to prednisolone conversion at 0.1 to 3 mg/kg relative to control; type: functional, Macaca fascicularis; details: dose mg/kg 0.1-3
[30] = Tmax in healthy human by 14 day test; type: ADME, organism-based; details: in vivo
Homo sapiens [31] = species: Homo sapiens; test: Reduction in 5alpha/5beta-tetrahydrocortisol to tetrahydrocortisone ratio in healthy human at 15 mg qd relative to control; type: functional
[32] = Drug excretion in healthy human urine; type: ADME, tissue-based; details: read-out: Drug excretion
[33] = Clearance in healthy human by 14 day test; type: ADME, organism-based; details: in vivo
Homo sapiens [34] = species: Homo sapiens; test: Inhibition of prednisone to prednisolone conversion in healthy human at 15 mg qd relative to control; type: functional
[35] = Elimination half life in healthy human by 14 day test; type: ADME, organism-based; details: in vivo, read-out: beta t1/2 (converted)
Mus musculus [36] = test: Reduction in plasma glucose level in ob/ob mouse at 200 mg/kg/day for 5 days measured after 5 days; type: functional; parameters: scale not given: the % may be the effect or the level left
[37] = target: Voltage-gated inwardly rectifying potassium channel KCNH2 (Homo sapiens, UniProt Q12809); test: Inhibition of human ERG
Homo sapiens [38] = species: Homo sapiens; test: Reduction in HDL-cholesterol in overweight/obese patient with hypertension at 7 mg relative to control; type: functional; parameters: scale not given: the % may be the effect or the level left
Homo sapiens [39] = species: Homo sapiens; test: Toxicity in overweight/obese patient with hypertension assessed as increase in adrenal androgen level at 7 mg/day relative to control; type: organism-based; details: in vivo
Homo sapiens [40] = species: Homo sapiens; test: Reduction in body weight in overweight/obese patient with hypertension at 7 mg relative to control; type: functional
Homo sapiens [41] = species: Homo sapiens; test: Reduction in LDL-cholesterol in overweight/obese patient with hypertension at 7 mg relative to control; type: functional; parameters: scale not given: the % may be the effect or the level left

T3 sequence (P50172 whole entry): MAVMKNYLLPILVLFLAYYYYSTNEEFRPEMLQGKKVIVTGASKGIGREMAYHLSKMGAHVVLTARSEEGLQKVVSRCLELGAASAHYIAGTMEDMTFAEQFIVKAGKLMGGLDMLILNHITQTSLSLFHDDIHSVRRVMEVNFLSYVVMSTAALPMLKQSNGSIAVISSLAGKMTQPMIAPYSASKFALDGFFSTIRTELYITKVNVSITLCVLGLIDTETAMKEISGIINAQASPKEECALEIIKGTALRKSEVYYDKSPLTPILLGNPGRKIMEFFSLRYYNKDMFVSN
Chain of 11-beta-hydroxysteroid dehydrogenase 1 (Homo sapiens, UniProt P28845) (P28845 whole entry): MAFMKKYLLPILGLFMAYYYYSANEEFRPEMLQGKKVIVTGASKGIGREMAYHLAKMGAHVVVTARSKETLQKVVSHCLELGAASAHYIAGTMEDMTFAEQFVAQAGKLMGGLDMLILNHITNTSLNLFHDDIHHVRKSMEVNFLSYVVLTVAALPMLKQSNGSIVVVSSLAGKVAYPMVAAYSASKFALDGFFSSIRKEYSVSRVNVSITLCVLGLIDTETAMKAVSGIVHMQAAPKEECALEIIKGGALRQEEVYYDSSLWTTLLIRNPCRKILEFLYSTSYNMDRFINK
Chain of Voltage-gated inwardly rectifying potassium channel KCNH2 (Q12809 whole entry): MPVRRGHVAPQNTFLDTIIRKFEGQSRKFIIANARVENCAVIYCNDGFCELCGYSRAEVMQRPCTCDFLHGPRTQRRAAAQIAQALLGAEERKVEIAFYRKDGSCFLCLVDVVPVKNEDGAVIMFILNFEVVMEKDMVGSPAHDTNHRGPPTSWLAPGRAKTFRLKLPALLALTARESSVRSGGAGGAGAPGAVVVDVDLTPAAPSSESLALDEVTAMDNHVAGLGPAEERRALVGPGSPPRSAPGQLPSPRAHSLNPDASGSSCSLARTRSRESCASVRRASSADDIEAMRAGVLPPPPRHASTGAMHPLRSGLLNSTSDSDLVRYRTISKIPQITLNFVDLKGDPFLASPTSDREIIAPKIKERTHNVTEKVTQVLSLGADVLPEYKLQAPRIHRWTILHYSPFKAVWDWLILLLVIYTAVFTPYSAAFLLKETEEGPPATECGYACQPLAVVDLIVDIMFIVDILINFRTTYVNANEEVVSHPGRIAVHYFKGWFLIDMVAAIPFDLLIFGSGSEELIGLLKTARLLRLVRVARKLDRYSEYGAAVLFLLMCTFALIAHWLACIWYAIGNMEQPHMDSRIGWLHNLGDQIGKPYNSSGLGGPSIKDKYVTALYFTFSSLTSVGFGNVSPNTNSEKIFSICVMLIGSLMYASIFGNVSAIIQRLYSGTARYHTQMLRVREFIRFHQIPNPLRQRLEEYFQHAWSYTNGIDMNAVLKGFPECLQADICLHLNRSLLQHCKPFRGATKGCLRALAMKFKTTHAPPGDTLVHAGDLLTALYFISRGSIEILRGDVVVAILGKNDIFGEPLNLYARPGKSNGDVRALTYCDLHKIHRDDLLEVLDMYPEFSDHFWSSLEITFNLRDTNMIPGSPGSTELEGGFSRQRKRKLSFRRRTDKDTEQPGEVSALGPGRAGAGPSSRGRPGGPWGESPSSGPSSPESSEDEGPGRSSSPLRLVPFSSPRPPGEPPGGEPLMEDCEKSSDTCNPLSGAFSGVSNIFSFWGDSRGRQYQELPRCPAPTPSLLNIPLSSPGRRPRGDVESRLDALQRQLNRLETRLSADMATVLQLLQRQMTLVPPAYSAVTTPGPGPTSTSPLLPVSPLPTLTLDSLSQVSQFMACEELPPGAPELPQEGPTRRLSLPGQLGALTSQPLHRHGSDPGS
Chain of 11-beta-hydroxysteroid dehydrogenase 1 (Rattus norvegicus, UniProt P16232) (P16232 whole entry): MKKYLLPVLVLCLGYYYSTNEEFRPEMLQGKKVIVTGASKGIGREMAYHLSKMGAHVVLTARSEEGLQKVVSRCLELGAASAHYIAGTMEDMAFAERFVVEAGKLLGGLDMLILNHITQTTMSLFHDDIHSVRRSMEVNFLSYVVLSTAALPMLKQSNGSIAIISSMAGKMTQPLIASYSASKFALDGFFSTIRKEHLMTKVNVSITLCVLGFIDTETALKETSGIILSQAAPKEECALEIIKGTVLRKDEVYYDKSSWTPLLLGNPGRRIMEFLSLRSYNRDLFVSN

SMILES: CCN1CCC[C@@H]1C(=O)NC1C2CC3CC(C2)CC1C3 (stereo partly specified)
%max (Mus musculus [1]): 50% | %max (Mus musculus [2]): 82%

SMILES: CC1CN(CC(=O)N[C@H]2C3CC4CC2C[C@](C(N)=O)(C4)C3)S(=O)(=O)N(c2c(Cl)cc(Cl)cc2Cl)C1 (stereo partly specified)
bioavailability [3]: 69% | IC50 [4]: > 100000 nM | clearance [5]: 11.7 mL/min/kg | inhibition in vivo at 20 mg/kg (Mus musculus [6]): 96%

SMILES: C1CCc2nnc(C34CC5CC(CC(C5)C3)C4)n2CC1
Activity (Mus musculus [7]): 37% | inhibition in vivo at 10 mg/kg (Mus musculus [8]): 17% | IC50 [9]: 8 nM | Activity (Mus musculus [10]): 7% | IC50 [11]: > 10000 nM | Activity (Mus musculus [12]): 15% | inhibition in vivo at 10 mg/kg (Mus musculus [13]): 59% | Activity (Mus musculus [14]): 37% | Activity (Mus musculus [15]): 84% | Activity (Mus musculus [16]): 12% | IC50 [17]: > 3000 nM

SMILES: COc1cc(C(=O)Nc2ccc(C(=O)N3CCCCC3)c(O)c2)cc(OC)c1OC
inhibition (INH) (Mus musculus [22]): 73%

SMILES: F[C@H]1C[C@](c2ccc(Cl)cc2)(c2nnc(C3CC3)n2C2CC2)C1
Activity (Homo sapiens [25]): 20% | Activity (Homo sapiens [26]): 10.4% | Activity (Homo sapiens [27]): -0.3%

SMILES: Cc1c(Cl)cccc1S(=O)(=O)Nc1nc(CC(=O)N2CCN(C)CC2)cs1
bioavailability [21]: 21% | IC50 [17]: > 10000 nM

SMILES: O=C(CN1C(C(=O)c2ccccc2)=C(O)c2ccccc2S1(=O)=O)c1ccccc1
Activity (Mus musculus [36]): -27% | IC50 [37]: > 100000 nM

SMILES: Cn1c(-c2ccccc2)nnc1C12CC3CC(CC(C3)C1)C2 [FIG 1]
inhibition in vivo at 10 mg/kg (Mus musculus [8]): 47% | inhibition in vivo at 10 mg/kg (Mus musculus [13]): 85%

SMILES: CCS(=O)(=O)CCCC12CCC(c3nnc(-c4ccccc4C(F)(F)F)n3C)(CC1)CC2 [MK-0736]
Activity (Homo sapiens [38]): -6.3% | fold change (FC) (Homo sapiens [39]): 2 | Activity (Homo sapiens [40]): -1.4 kg | Activity (Homo sapiens [41]): -12.3%

The next lines start with results.

IC50 [18]: 120 nM
SMILES: CSc1nc(N2C[C@@H]3[C@H](C2)[C@H]3C(=O)O)ccc1C(=O)NC12CC3CC(CC(C3)C1)C2

clearance [19]: 42 mL/min/kg | IC50 [20]: 350 nM | bioavailability [21]: 22%
SMILES: CC1(C)C(=O)N(c2cccc(S(C)(=O)=O)c2)C1c1cccc2nccnc12 (stereo unspecified)

IC50 [20]: 307 nM
SMILES: CN(C(=O)c1csc(CNS(=O)(=O)c2cccc(Cl)c2)n1)C1CCCCCC1

IC50 [20]: 18 nM
SMILES: Cc1c(Cl)cccc1S(=O)(=O)N1CCC[C@H](C(=O)N[C@H]2C[C@@H]3CC[C@@]2(C)C3(C)C)C1

clearance [19]: 130 mL/min/kg | IC50 [20]: 15 nM | bioavailability [21]: 3%
SMILES: Cc1c(Cl)cccc1S(=O)(=O)N1CCCC[C@@H]1C(=O)N[C@H]1C2CC3CC1C[C@](O)(C3)C2

IC50 [23]: 287 nM | IC50 [24]: 528 nM
SMILES: CS(=O)(=O)NCCC(=O)N1CCC(c2cc(C(=O)N3CCC[C@H]4CCCC[C@H]43)cs2)CC1

IC50 [17]: > 10000 nM
SMILES: CCN(CC)C(=O)Cc1csc(NS(=O)(=O)c2cccc(Cl)c2C)n1

Tmax [30]: 1 h | dose excreted [32]: < 1% | clearance [33]: 16.7 mL/min | half-life [35]: 30 h
SMILES: N#Cc1ccc(-c2ccc(S(=O)(=O)Nc3cccc(N)n3)cc2)cc1
%max (Cynomolgus monkey [28]): 60% | %max (Cynomolgus monkey [29]): 87% | %max (Homo sapiens [31]): 26% | %max (Homo sapiens [34]): 37%
